Assay results taken from patent publication US9132106B2, “Synergistic ophthalmic compositions for disinfecting contact lenses” (Abbott Medical Optics Inc., priority 2013, dated 2015).

Tested on: Candida albicans ATCC 10231
Experiment: Antimicrobial activity, 6 hr log kill of C. albicans
Assay type: cell-based
Method: The test procedure for testing antimicrobial activity against specified test organisms is as follows: A 10-mL aliquot of test sample was transferred into a single polypropylene test tube. Sterile Dulbecco's Phosphate-Buffered Saline with 0.05 w/v % Polysorbate 80 (DPBST) was transferred into a separate polypropylene test tube and used as a control. All samples and control were stored at 20-25° C. throughout the duration of the test. Test cultures of specified test organisms were cultured and prepared in the conventional manner using Saboraud Dextrose Agar (SDA) as the growth medium. The challenge organism inoculum was adjusted to approximately 1×10e7-1×10e8 CFU/mL in DPBST. Fifty μL of culture inoculum was added to 10.0 mL of each test sample and control, so that the final inoculum level was in the range of 1×10e5 to 1×10e6 CFU (colony forming units) per mL of specified test organism. Contact time intervals for testing activity against the specified test organism were typically within 4 or 6 hours, e.g., 15 minutes, 30 minutes, 45 minutes, 1 hour, 2 hours, 4 hours and 6 hours, to remain within the intended product label instructions for maximum contact lens soak time.
Following incubation, the number of surviving organisms was enumerated by serial dilution and culture on SDA medium. An appropriate neutralizing disinfectant medium was used for performing serial dilutions (e.g. Letheen Neutralizing Broth containing 0.5% Polysorbate 80 media—LetheenT80). Additionally, the numbers of colony-forming-units (CFU) were counted and the Log 10 reduction in viable number calculated for test solutions based on the initial time zero challenge inoculum in the control solution.

[1] = Table II formula, 6 hour soaking

CCCCC(CC)CNC(=N)NC(=N)NCCCCCCNC(=N)NC(=N)NCC(CC)CCCC (stereo not drawn) [alexidine]
log kill from alexidine alone in the same formula (1.05 ppm alexidine, 6 hours, C. albicans): about 1.4 log
log kill of C. albicans (FIG. 1) (alexidine at 1.00 ppm in Table 1 formula, 6 hour soaking): 1.3 log

[H]/N=C(\N/C(=N/[H])NCCCCCCNC(=N)NC(=N)Nc1ccc(Cl)cc1)Nc1ccc(Cl)cc1 [chlorhexidine]
log kill from chlorhexidine alone in the same formula (5.00 ppm chlorhexidine, 6 hours, C. albicans): about 0.5 log
chlorhexidine concentration needed to achieve a 2-log kill against C. albicans (FIG. 2) [1]: > 12 ppm
chlorhexidine concentration needed to achieve a 3-log kill against C. albicans (FIG. 2) [1]: > 15 ppm

poly[(dimethyliminio)-2-butene-1,4-diyl chloride], α-[4-[tris(2-hydroxyethyl) ammonio]-2-butenyl]-Ω-[tris(2-hydroxyethyl)ammonio]-dichloride [PQ-1]
effect of PQ-1 on C. albicans (in words) (in the presence of 0.65% trisodium citrate dihydrate): little effect
